In patent publication US7998460B2, “Prevention of deficits in neurogenesis with anti-inflammatory agents” (The Board of Trustees of the Leland Stanford Junior …, priority 2003, dated 2011):

What was measured:
[1] = system: adult hippocampus-derived neural precursor cells; experiment: In vitro neuronal differentiation (doublecortin) of hippocampal neural progenitor cells, 60 hours; assay type: cell-based, rat; details: for effect on in vitro neurogenesis (Dcx-expressing cells relative to control): 60 hours differentiation
Text: Neuroinflammation could inhibit neurogenesis by a variety of mechanisms, including stimulation of the HPA axis with subsequent elevation of gluccocorticoids, alterations in the relationships between progenitor cells and cells of the neuro-vasculature, or direct effects of activated microglia on the precursor cells. To determine the extent to which microglial activation might directly affect neural stem/progenitor cells, microglia were stimulated in vitro with LPS. LPS is a potent activator of microglia and up-regulates the elaboration of pro-inflammatory cytokines, including IL-6 and TNF-α. LPS-stimulated or resting microglia were then co-cultured with normal neural stem cells from the hippocampus under conditions that typically stimulate the differentiation of 30 to 40% of the progenitor cells into immature Dcx-expressing neurons (normalized to a value of 1 in FIG. 2A, control). Neurogenesis in the presence of microglia was assessed as the increase or decrease in Dcx-expressing cells relative to control. Co-culture with activated, but not resting, microglia decreased in vitro neurogenesis to approximately half of control levels (FIG. 2A). LPS added directly to precursor cells had no effect on neurogenesis.
To determine if this effect was due to soluble factors or due to cell-cell contact, hippocampal precursor cells were differentiated in the presence of media pre-conditioned by resting or activated microglia.
Activated microglia produce the potent pro-inflammatory cytokines interleukin-1β (IL-1β), tumor necrosis factor-α (TNF-α), interferon-γ (INF-γ) and interleukin-6 (IL-6). Progenitor cells were allowed to differentiate in the presence of each cytokine and the relative expression of Dcx was scored after 60 hours. […] Addition of neutralizing anti-IL-6 antibody to CM from activated microglia was able to fully restore in vitro neurogenesis (FIG. 2A). This implicated IL-6 as a key inhibitor of neurogenesis in microglial CM. […] In contrast to neurogenesis, gliogenesis was unaffected by IL-6 exposure as indicated by the lack of change in the number of cells expressing the astrocyte (glial fibrillary acidic protein, GFAP) or early oligodendrocyte (NG2) markers relative to control cultures (FIG. 2E). The hippocampal precursors used in this study do express the IL-6 receptor, as confirmed by RT-PCR (FIG. 5).
Progenitor Cell Culture Adult hippocampus-derived neural precursor cells were isolated from adult rat hippocampus and cultured as previously described. Briefly, adult female Fisher-344 rats were deeply anesthetized with sodium pentobarbital and were dissected immediately. Hippocampi were enzymatically dissociated with papain (2.5 U/ml; Worthington, Freehold, N.J.)-dispase II (1 U/ml; Boehringer Mannheim, Indianapolis, Ind.)-DNase I (250 U/ml, Worthington) solution. Digested tissue was then washed with DMEM-10% fetal calf serum (FCS) and subsequently mixed with PBS-equilibrated Percoll solution to a final concentration of 35% Percoll. The Percoll solution was made by mixing nine parts of Percoll (Amersham Pharmacia Biotech, Uppsala, Sweden) with one part of 10× PBS. The cell suspension was then fractionated by centrifugation for 10 min at 1000×gravity. Floating myelin and tissue debris were discarded and the cell pellet re-suspended in 65% Percoll solution and fractionated again by centrifugation for 10 min at 1000×g. The floating neural precursors were collected, washed free of Percoll, and plated onto poly-L-ornithine/laminin-coated dishes in DMEM/F12 (1:1) containing 10% FCS medium for 24 hrs; then medium was replaced with serum-free growth medium consisting of DMEM/F12 (1:1) supplemented with N2 supplement (Life Technologies, Gaithersburg, Md.) and 20 ng/ml of human recombinant FGF-2 (Peprotech, Rocky Hill, N.J.). Cell lines were labeled via infection with replication deficient GFP-expressing recombinant retrovirus LZRS-CAMut4GFP. […]

neural progenitor cells = experiment: Differentiation of mouse neural progenitor cells with recombinant MCP-1, 5 days; assay type: cell-based; details: rmMCP-1 up to 100 ug/ml
Description: To determine if MCP-1 was acting directly on neural progenitor cells to mediate these effects, brains from wild type, MCP-1^−/−, or CCR2^−/− mice were enzymatically dissociated and neurosphere cultures established in growth medium (Neurobasal-A, B27 supplement, 10 ng/ml EGF, 20 ng/ml FGF-2). Neurospheres were dissociated at passage 2-3 and plated as monolayers on laminin coated dishes and then induced to differentiate by replacing growth medium with differentiation medium (Neurobasal-A, B27, 1 ng/ml FGF-2, 100 nM all-trans retinoic acid, 10 ng/ml BDNF, 10 ng/ml NT3). Increasing concentrations of recombinant mouse MCP-1 (rmMCP-1) were added to the medium and cells were allowed to differentiate for 5 days. Cells were then fixed and stained for Dcx (FIG. 11C-C). Within 5 days of differentiation, a proportion of cells became positive for Dcx. […] Similarly, addition of rmMCP-1 up to a final concentration of 100 ug/ml had no effect on the number of neurons produced.
Progenitor Cell Culture and Differentiation Whole brains from PO mouse pups were enzymatically digested with a mixture of papain, neutral protease, and DNAse. Neurospheres were cultured on uncoated plates with medium containing Neurobasal A (Gibco), L-glutamine, PSF, B-27 without vitamin A, 40 ng/ml FGF-2, and 40 ng/ml EGF. Cultures were passaged in parallel when reaching confluence and total viable cell counts were made using a hemocytometer to score trypan blue-excluding cells at each passage. Cells were induced to differentiate by plating dissociated cells into laminin-coated multi-chamber tissue culture slides (Nunc) in differentiation media, Neurobasal A, B-27 without vitamin A, 1% fetal bovine serum, 100 nM all trans-retinoic acid, 1 ng/ml FGF-2, 10 ng/ml BDNF, and 10 ng/ml NT3. […] Total nuclei per sample site was scored using DAPI, neurons were scored on the basis of Dcx immunoreactivity. No significant differences were detected in either growth or differentiation between wild type and MCP-1^−/− or CCR2^−/− mice

C57BI/6 mice = experiment: Locomotor chambers and Morris water maze after LPS in mice; assay type: in vivo, mouse; details: for distance swum to hidden platform in training, NSAID alone: first training session, no LPS; for probe trial performance, NSAID alone: no LPS challenge
Description: Behavioral testing. Locomotor activity was measured in 17×17 inch chambers lined with three 16-beam infrared arrays in photocell boxes (MED Associates, Inc., St. Albans, Vt.). The mice were placed into the chambers and their locomotor activity was recorded for 20 minutes 4 days after LPS was injected (on Day 4). A 50 msec scanning rate was used for measuring beams broken. Distance traveled was analyzed for estimates of locomotion based on the movement of a given distance and resting delay (movement in a given period) using Open Field Activity software (MED Associates, Inc., St. Albans, Vt.).
Hippocampus-dependent learning and memory was assessed in the standard Morris water maze task. All hippocampus-dependent training and testing was conducted in a black circular tank (170 cm diameter×43 cm height) filled water made opaque using white non-toxic Tempra paint (Rich Art Color Co. Inc, Northvale, Calif.; training and testing). A platform (13 cm diameter×28.5 cm height) was hidden 1 cm below the water surface for platform shaping and training trials. Time and distance traveled in the pool was recorded using Videotrack Automated Behavioral Analysis System (Viewpoint Life Sciences Inc., Otterburn Park, Quebec).
Platform shaping began three days before platform training (Days 25-27). In the absence of extra-maze cues, mice were released from random points in the pool (filled with clearwater) near the platform and gently guided to the platform. Shaping trials continued until the mouse remained on the platform for 15 s over 3 consecutive trials on each of the three sessions.
[…] In the presence of extra-maze cues, the mice were released from the middle of the east, south, or west quadrant, facing the pool wall, and were given 120 s to find the platform hidden beneath opaque water in the center of the north quadrant. […] Sessions of 6 training trials (inter-trial interval of approximately 30 min) were conducted daily until all the mice located the platform in an average of 15 s or less within a session. […] Pathlength and latency were analyzed as measures of learning, swim speed was analyzed as a measure of sensorimotor ability and % time spent in outer annulus was analyzed as a measure of anxiety.
Probe Trial Testing was conducted at 1 week after mice reached criterion in the platform training phase of the experiment. The room setup was identical for platform training and probe trials, with the exception that the platform was removed from the pool during probe trials. The mice were given a single trial in which they were released from the center of the pool and then after 3 minutes were removed from the location that held the platform during training trials. Percent time and distance spent in each quadrant were analyzed as measures of memory, swim speed and total distance swum were analyzed as measures of sensorimotor ability and % time and distance spent in the outer annulus were analyzed as measures of anxiety. After the last probe trial, we ran four daily sessions of reversal trials (4 trials per session) in which mice were given 120 s to locate the platform hidden beneath opaque water in the south quadrant to better interpret whether probe trial performance was indicative of memory or perseveration. […] A visible platform session (2 trials) was administered after the final reversal trial to further test sensorimotor ability. Reversal and visible platform trial performance was scored identically to platform training performance.

TNF-α
decrease of in vitro neurogenesis (relative expression of Dcx) ([1]; recombinant IL-6 50 ng/ml or TNF-α 20 ng/ml, 60 hours): approximately 50%

rmMCP-1: recombinant mouse monocyte chemoattractant protein-1 (Peprotech)
extent of neuronal arborization (neural progenitor cells): Neither was the extent of arborization influenced
number of Dcx-positive neurons produced (neural progenitor cells): no effect
number of Dcx-positive neurons produced (neural progenitor cells; listed as MCP-1): does not directly affect

Cc1ccc(-c2cc(C(F)(F)F)nn2-c2ccc(S(N)(=O)=O)cc2)cc1 [Celebrex, celecoxib]
distance swum to hidden platform in training, NSAID alone (C57BI/6 mice): slight but significant increased distance swum
distance swum to hidden platform in training, NSAID alone (C57BI/6 mice; listed as celebrex): slight but significant initial increase in swimming distance
probe trial performance, NSAID alone (C57BI/6 mice): performed as badly as LPS-treated mice
probe trial performance, NSAID alone (C57BI/6 mice; listed as celebrex): alone significantly impaired memory

B1: INF-γ: recombinant rat interferon γ (protein, UniProt P01581 23-156, looked up)
Interferon gamma: QGTLIESLESLKNYFNSSSMDAMEGKSLLLDIWRNWQKDGNTKILESQIISFYLRLFEVLKDNQAISNNISVIESHLITNFFSNSKAKKDAFMSIAKFEVNNPQIQHKAVNELIRVIHQLSPESSLRKRKRSRC
effect on in vitro neurogenesis (Dcx-expressing cells relative to control) [1]: not significant

B2: IL-1β: recombinant rat interleukin 1β (protein, UniProt Q63264 117-268, looked up)
Interleukin-1 beta: VPIRQLHCRLRDEQQKCLVLSDPCELKALHLNGQNISQQVVFSMSFVQGETSNDKIPVALGLKGLNLYLSCVMKDGTPTLQLESVDPKQYPKKKMEKRFVFNKIEVKTKVEFESAQFPNWYISTSQAEHRPVFLGNSNGRDIVDFTMEPVSS
effect on in vitro neurogenesis (Dcx-expressing cells relative to control) [1]: not significant
